One test has as its system saphenous artery rings. Briefly: Vasorelaxant effect in vitro (phenylephrine-contracted artery rings). It is filed as cell-based, Rabbits. The conditions noted are these: rabbit saphenous artery rings, contraction induced by phenylephrine. Here is the method: B-1. Vasorelaxant Effect In Vitro:
Rabbits are anaesthetized and sacrificed by intravenous injection of thiopental sodium (about 50 mg/kg) and exsanguinated. The saphenous artery is removed and divided into rings 3 mm wide. The rings are mounted singly on in each case a pair of triangular hooks open at the end and made of 0.3 mm-thick special wire (Remanium®). Each ring is placed under an initial tension in 5 ml organ baths with Krebs-Henseleit solution which is at 37° C., is gassed with 95% O2/5% CO2 and has the following composition: NaCl 119 mM; KCl 4.8 mM; CaCl2×2H2O 1 mM; MgSO4×7H2O 1.4 mM; KH2PO4 1.2 mM; NaHCO3 25 mM; glucose 10 mM; bovine serum albumin 0.001%. The force of contraction is detected with Statham UC2 cells, amplified and digitized via A/D converters (DAS-1802 HC, Keithley Instruments, Munich) and recorded in parallel on chart recorders. Contractions are induced by addition of phenylephrine.
After several (generally 4) control cycles, the substance to be investigated is added in each further run in increasing dosage, and the height of the contraction achieved under the influence of the test substance is compared with the height of the contraction reached in the last preceding run. The concentration necessary to reduce the contraction reached in the preceding control by 50% is calculated from this (IC50). The standard application volume is 5 μl. The proportion of DMSO in the bath solution corresponds to 0.1%.

Test [1] deals with T1, Haem-free sGC (recombinant soluble guanylate cyclase) (Rattus norvegicus, UniProt P20595).
T1 construct: made in house; host or cells: Sf9 insect cells (baculovirus)
T1 sequence (P20595 1-619): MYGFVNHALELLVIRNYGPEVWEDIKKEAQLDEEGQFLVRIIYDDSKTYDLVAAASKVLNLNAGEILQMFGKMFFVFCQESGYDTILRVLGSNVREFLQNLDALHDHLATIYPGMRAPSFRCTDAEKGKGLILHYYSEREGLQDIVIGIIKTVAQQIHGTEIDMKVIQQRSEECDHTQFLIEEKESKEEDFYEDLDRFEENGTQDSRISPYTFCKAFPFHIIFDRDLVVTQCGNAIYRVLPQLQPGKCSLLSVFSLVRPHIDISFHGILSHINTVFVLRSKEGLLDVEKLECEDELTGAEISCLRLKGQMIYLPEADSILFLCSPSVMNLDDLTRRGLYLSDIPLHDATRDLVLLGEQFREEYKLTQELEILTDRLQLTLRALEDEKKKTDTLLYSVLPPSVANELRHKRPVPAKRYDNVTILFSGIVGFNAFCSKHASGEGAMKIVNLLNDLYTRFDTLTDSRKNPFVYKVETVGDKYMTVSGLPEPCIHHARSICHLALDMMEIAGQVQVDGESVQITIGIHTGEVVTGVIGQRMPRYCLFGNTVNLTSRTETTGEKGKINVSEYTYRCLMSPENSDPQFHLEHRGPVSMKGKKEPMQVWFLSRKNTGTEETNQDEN
T1 sequence (P19686 1-690 partner): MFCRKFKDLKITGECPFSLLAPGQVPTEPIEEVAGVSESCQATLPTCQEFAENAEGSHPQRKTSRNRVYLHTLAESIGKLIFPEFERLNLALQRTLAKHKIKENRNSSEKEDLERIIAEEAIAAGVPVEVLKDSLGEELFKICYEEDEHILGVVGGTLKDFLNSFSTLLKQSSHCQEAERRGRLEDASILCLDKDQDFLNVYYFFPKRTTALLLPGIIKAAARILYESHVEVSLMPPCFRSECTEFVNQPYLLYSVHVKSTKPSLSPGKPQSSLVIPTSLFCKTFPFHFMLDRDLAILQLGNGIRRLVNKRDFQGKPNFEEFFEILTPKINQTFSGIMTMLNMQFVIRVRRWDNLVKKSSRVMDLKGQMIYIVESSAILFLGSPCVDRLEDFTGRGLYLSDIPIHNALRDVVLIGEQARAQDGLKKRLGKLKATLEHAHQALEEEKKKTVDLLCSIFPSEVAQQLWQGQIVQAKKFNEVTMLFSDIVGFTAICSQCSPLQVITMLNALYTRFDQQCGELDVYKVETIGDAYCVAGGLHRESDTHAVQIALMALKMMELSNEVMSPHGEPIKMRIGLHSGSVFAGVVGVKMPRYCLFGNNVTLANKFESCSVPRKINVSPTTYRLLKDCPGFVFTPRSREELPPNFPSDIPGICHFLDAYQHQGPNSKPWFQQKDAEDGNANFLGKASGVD
The experiment in a line: Stimulation of recombinant soluble guanylate cyclase (sGC) in vitro, haem-free enzyme. It is filed as biochemical. Here is the method: (§1) B-2. Stimulation of Recombinant Soluble Guanylate Cyclase (sGC) In Vitro:
Investigations on the stimulation of recombinant soluble guanylate cyclase (sGC) by the compounds according to the invention with and without sodium nitroprusside, and with and without the haem-dependent sGC inhibitor 1H-1,2,4-oxadiazole-(4,3a)-quinoxalin-1-one (ODQ) are carried out by the method described in detail in the following reference: M. Hoenicka, E. M. Becker, H. Apeler, T. Sirichoke, H. Schroeder, R. Gerzer and J.-P. Stasch, “Purified soluble guanylyl cyclase expressed in a baculovirus/Sf9 system: Stimulation by YC-1, nitric oxide, and […]”, J. Mol. Med. 77 (1999), 14-23. The haem-free guanylate cyclase is obtained by adding Tween 20 to the sample buffer (0.5% in the final concentration).
(§2) The activation of sGC by a test substance is reported as n-fold stimulation of the basal activity.

The target of test [2] is T2, Haem-containing sGC (recombinant soluble guanylate cyclase) (Rattus norvegicus, UniProt P20595).
T2 construct: made in house; host or cells: Sf9 insect cells (baculovirus)
T2 sequence (P20595 1-619): T1 sequence (P20595 1-619)
T2 sequence (P19686 1-690 partner): T1 sequence (P19686 1-690 partner)
The experiment in a line: Stimulation of recombinant soluble guanylate cyclase (sGC) in vitro, haem-containing enzyme. It is filed as biochemical.
Source text: as §1
Hoenicka, E. M. Becker, H. Apeler, T. Sirichoke, H. Schroeder, R. Gerzer and J.-P. Stasch, “Purified soluble guanylyl cyclase expressed in a baculovirus/Sf9 system: Stimulation by YC-1, nitric oxide, and carbon oxide”, J. Mol. Med. 77 (1999), 14-23. The haem-free guanylate cyclase is obtained by adding Tween 20 to the sample buffer (0.5% in the final concentration).
as §2

Another test relates to conscious SH rats. Briefly: Radiotelemetric measurement of blood pressure and heart rate on conscious SH rats. The format is in vivo, spontaneously hypertensive rats (SH rats). As to conditions: oral administration of 0.3 mg/kg. The source says:
B-3. Radiotelemetric Measurement of Blood Pressure and Heart Rate on Conscious SH Rats
A commercially available telemetry system from Data Sciences International DSI, USA, is employed for the measurements on conscious SH rats described below.
The system consists of 3 main components: (1) implantable transmitter, (2) receiver which is linked via a multiplexer to a (3) data acquisition computer. The telemetry system makes it possible to record continuously the blood pressure and heart rate on conscious animals in their usual habitat.
The investigations are carried out on adult female spontaneously hypertensive rats (SH rats) with a body weight of >200 g. After transmitter implantation, the experimental animals are housed singly in type 3 Makrolon cages. They have free access to standard feed and water. […]
The telemetry measuring unit is configured for 24 animals. Each experiment is recorded under an experiment number.
Each of the instrumented rats living in the system is assigned a separate receiving antenna (1010 Receiver, DSI). […] The emitted signals can be detected online by a data acquisition system (Dataquest™ A.R.T. for Windows, DSI) and be appropriately processed. […]
In the standard procedure, the following are measured for 10-second periods in each case: (1) systolic blood pressure (SBP), (2) diastolic blood pressure (DBP), (3) mean arterial pressure (MAP) and (4) heart rate (HR). […]

The source of these data is patent US8609727B2, “Dicarboxylic acid derivatives and their use” (Bayer Intellectual Property GmbH, priority 2005, dated 2013).

Consider `O=C(O)c1ccc(CCC(/C=C/c2ccccc2OCCCCCc2ccccc2)Cc2ccc(C(=O)O)cc2)cc1` (racemic) [Example 5, 4-((4E)-3-(4-Carboxybenzyl)-5-{2-[(5-phenylpentyl)oxy]phenyl}pent-4-en-1-yl)benzoic Acid], for which the IC50 with saphenous artery rings stood at 4.9 nM. The “Stimulation (n-fold) Haem-free sGC Basal” value in test [1] (0.001 μM Example 5) was determined as 19.2 n-fold; in test [1] (0.01 μM Example 5) it was 105.8 n-fold; in test [1] (0.1 μM Example 5), 185.3 n-fold; in test [1] (1 μM Example 5), 201.2 n-fold; in test [1] (10 μM Example 5) it was 203.1 n-fold. Moreover, the “Stimulation (n-fold) Haem-free sGC +10 μM ODQ” value in test [1] (0.001 μM Example 5 +10 μM ODQ) turned out to be 18.4 n-fold; in test [1] (0.01 μM Example 5 +10 μM ODQ), 100.5 n-fold; in test [1] (0.1 μM Example 5 +10 μM ODQ), 170.4 n-fold; in test [1] (1 μM Example 5 +10 μM ODQ), 189.2 n-fold; in test [1] (10 μM Example 5 +10 μM ODQ), 180.7 n-fold. For the same compound, the “Stimulation (n-fold) Haem-containing sGC Basal” value in test [2] (0.001 μM Example 5) was found to be 3.5 n-fold; in test [2] (0.01 μM Example 5), 17.2 n-fold; in test [2] (0.1 μM Example 5), 35.1 n-fold; in test [2] (1 μM Example 5), 44.2 n-fold; in test [2] (10 μM Example 5), 59.5 n-fold. The “Stimulation (n-fold) Haem-containing sGC +0.1 μM DEA/NO” value in test [2] (0.001 μM Example 5 +0.1 μM DEA/NO) was 88.3 n-fold; in test [2] (0.01 μM Example 5 +0.1 μM DEA/NO), 102.9 n-fold; in test [2] (0.1 μM Example 5 +0.1 μM DEA/NO) it was 123.1 n-fold; in test [2] (1 μM Example 5 +0.1 μM DEA/NO), 124.1 n-fold; in test [2] (10 μM Example 5 +0.1 μM DEA/NO), 152.0 n-fold. The “Stimulation (n-fold) Haem-containing sGC +10 μM ODQ” value in test [2] (0.001 μM Example 5 +10 μM ODQ) worked out at 40.3 n-fold; in test [2] (0.01 μM Example 5 +10 μM ODQ) it was 83.0 n-fold; in test [2] (0.1 μM Example 5 +10 μM ODQ), 149.5 n-fold; in test [2] (1 μM Example 5 +10 μM ODQ) it was 162.1 n-fold; in test [2] (10 μM Example 5 +10 μM ODQ), 171.2 n-fold. For the same compound, the “Synergy of combination with NO donor DEA/NO on sGC stimulation” value in test [2] (combination with DEA/NO) is “no synergistic effect”.

`CCCCCCOc1ccccc1/C=C/C(CCc1ccc(C(=O)O)cc1)Cc1ccc(C(=O)O)cc1` (racemic) [Example 20, 4-{(4E)-3-(4-Carboxybenzyl)-5-[2-(hexyloxy)phenyl]pent-4-en-1-yl}benzoic Acid] displayed an IC50 in the test on saphenous artery rings (Oryctolagus cuniculus) of 0.7 nM. In addition, in the test with conscious SH rats, the “Period of blood pressure reduction” value was found to be 11 h and the “Reduction in blood pressure” value is recorded as “marked reduction in blood pressure”.
